Results published in ChEMBL document CHEMBL1201862, “PubChem BioAssay data set” (2004).
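Dose response: 5 concentrations. Exposure: 48 h. Format: 96-well plates. Endpoint: linear interpolation; highest concentration if not reached. Here, GI50 denotes the concentration required for 50% inhibition of growth.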 The source made the active and inactive calls. Rule as the data show it: active = GI50 up to about 1.1 µM and inactive = higher.

Legend:
Assay in all cases: NCI anticancer screen, dose series, 48 h
[1] = test system: OVCAR-3
[2] = test system: SNB-19
[3] = test system: SF-268
[4] = test system: HCT-15
[5] = test system: HCT-116
[6] = test system: NCI/ADR-RES
[7] = test system: DU-145
[8] = test system: OVCAR-5
[9] = test system: U-251
[10] = test system: COLO 205
[11] = test system: 786-0
[12] = test system: NCI-H226
[13] = test system: IGROV-1
[14] = test system: ACHN
[15] = test system: SK-OV-3
[16] = test system: OVCAR-4
[17] = test system: SW-620
[18] = test system: HOP-62
[19] = test system: BT-549
[20] = test system: UO-31
[21] = test system: A498
[22] = test system: NCI-H23
[23] = test system: Malme-3M
[24] = test system: KM12
[25] = test system: Hs-578T
[26] = test system: SNB-75
[27] = test system: UACC-62
[28] = test system: HOP-92
[29] = test system: SK-MEL-28
[30] = test system: EKVX
[31] = test system: A549
[32] = test system: SF-539
[33] = test system: HT-29
[34] = test system: SK-MEL-5
[35] = test system: TK-10
[36] = test system: MOLT-4
[37] = test system: LOX IMVI
[38] = test system: UACC-257
[39] = test system: SR
[40] = test system: CCRF-CEM
[41] = test system: SK-MEL-2
[42] = test system: SN12C
[43] = test system: NCI-H460
[44] = test system: RPMI-8226
[45] = test system: RXF 393
[46] = test system: OVCAR-8
[47] = test system: SF-295
[48] = test system: MDA-MB-435
[49] = test system: T47D
[50] = test system: M14
[51] = test system: MDA-MB-231
[52] = test system: MCF7
[53] = test system: MDA-N
[54] = test system: PC-3
[55] = test system: HL-60
[56] = test system: K562
[57] = test system: CAKI-1
[58] = test system: HCC 2998
[59] = test system: NCI-H522

CC(C)CCCC(C)[C@H]1CCC2[C@@H]3CCC4Cc5nc6c(nc5C[C@]4(C)C3CC[C@@]21C)CC1CC[C@@H]2C(CC[C@@]3(C)C2CC[C@@H]3O)[C@@]1(C)C6 (stereo not given in full)
GI50 [1]: > 100 µM (inactive)
GI50 [2]: > 100 µM (inactive)
GI50 [3]: > 100 µM (inactive)
GI50 [4]: > 100 µM
GI50 [5]: > 100 µM (inactive)
GI50 [6]: > 100 µM (inactive)
GI50 [7]: > 100 µM (inactive)
GI50 [8]: > 100 µM (inactive)
GI50 [9]: > 100 µM (inactive)
GI50 [10]: > 100 µM (inactive)
GI50 [11]: 87.1 µM (inactive)
GI50 [12]: > 100 µM (inactive)
GI50 [13]: > 100 µM (inactive)
GI50 [14]: > 100 µM (inactive)
GI50 [15]: > 100 µM (inactive)
GI50 [16]: > 100 µM (inactive)
GI50 [17]: > 100 µM (inactive)
GI50 [18]: > 100 µM (inactive)
GI50 [19]: > 100 µM (inactive)
GI50 [20]: > 100 µM (inactive)
GI50 [21]: > 100 µM (inactive)
GI50 [22]: > 100 µM (inactive)
GI50 [23]: > 100 µM (inactive)
GI50 [24]: > 100 µM (inactive)
GI50 [25]: > 100 µM (inactive)
GI50 [26]: 62.2 µM (inactive)
GI50 [27]: > 100 µM (inactive)
GI50 [28]: > 100 µM (inactive)
GI50 [29]: > 100 µM (inactive)
GI50 [30]: > 100 µM (inactive)
GI50 [31]: > 100 µM (inactive)
GI50 [32]: > 100 µM (inactive)
GI50 [33]: > 100 µM (inactive)
GI50 [34]: > 100 µM (inactive)
GI50 [35]: > 100 µM (inactive)
GI50 [36]: > 100 µM (inactive)
GI50 [37]: > 100 µM (inactive)
GI50 [38]: > 100 µM (inactive)
GI50 [39]: > 100 µM (inactive)
GI50 [40]: > 100 µM (inactive)
GI50 [41]: > 100 µM (inactive)
GI50 [42]: > 100 µM (inactive)
GI50 [43]: > 100 µM (inactive)
GI50 [44]: > 100 µM (inactive)
GI50 [45]: > 100 µM (inactive)
GI50 [46]: > 100 µM (inactive)
GI50 [47]: > 100 µM (inactive)
GI50 [48]: > 100 µM (inactive)
GI50 [49]: > 100 µM (inactive)
GI50 [50]: > 100 µM (inactive)
GI50 [51]: > 100 µM (inactive)
GI50 [52]: > 100 µM (inactive)
GI50 [53]: > 100 µM (inactive)
GI50 [54]: > 100 µM (inactive)
GI50 [55]: > 100 µM (inactive)
GI50 [56]: > 100 µM (inactive)

CN(C)CCCNc1ccc([N+](=O)[O-])c2nc3ccccc3c(N)c12
GI50 [1]: 0.63 µM (active)
GI50 [2]: 0.635 µM (active)
GI50 [3]: 0.839 µM (active)
GI50 [4]: 0.423 µM
GI50 [5]: 0.124 µM (active)
GI50 [57]: 2.67 µM (inactive)
GI50 [6]: 0.397 µM (active)
GI50 [7]: 0.308 µM (active)
GI50 [8]: 2.49 µM (inactive)
GI50 [9]: 0.738 µM (active)
GI50 [10]: 0.243 µM (active)
GI50 [11]: 0.385 µM (active)
GI50 [12]: 5.14 µM (inactive)
GI50 [13]: 0.659 µM (active)
GI50 [14]: 0.205 µM (active)
GI50 [15]: 0.228 µM (active)
GI50 [16]: 0.169 µM (active)
GI50 [17]: 0.22 µM (active)
GI50 [18]: 2.36 µM (inactive)
GI50 [19]: 1.48 µM (inactive)
GI50 [20]: 0.942 µM (active)
GI50 [21]: 2.22 µM (inactive)
GI50 [22]: 0.9 µM (active)
GI50 [23]: 0.51 µM (active)
GI50 [24]: 0.436 µM (active)
GI50 [25]: 3.33 µM (inactive)
GI50 [27]: 1.25 µM (inactive)
GI50 [28]: 0.516 µM (active)
GI50 [29]: 2.44 µM (inactive)
GI50 [30]: 0.755 µM (active)
GI50 [31]: 0.512 µM (active)
GI50 [32]: 0.449 µM (active)
GI50 [33]: 0.225 µM (active)
GI50 [34]: 1.21 µM (inactive)
GI50 [35]: 2.27 µM (inactive)
GI50 [36]: 0.278 µM (active)
GI50 [37]: 0.36 µM (active)
GI50 [38]: 1.63 µM (inactive)
GI50 [39]: 0.23 µM (active)
GI50 [40]: 0.243 µM (active)
GI50 [41]: 1.38 µM (inactive)
GI50 [42]: 0.771 µM (active)
GI50 [43]: 0.352 µM (active)
GI50 [44]: 0.266 µM (active)
GI50 [45]: 0.736 µM (active)
GI50 [46]: 0.483 µM (active)
GI50 [47]: 0.382 µM (active)
GI50 [48]: 0.718 µM (active)
GI50 [49]: 0.914 µM (active)
GI50 [50]: 0.7 µM (active)
GI50 [51]: 0.598 µM (active)
GI50 [52]: 0.459 µM (active)
GI50 [53]: 0.458 µM (active)
GI50 [54]: 0.394 µM (active)
GI50 [55]: 0.459 µM (active)
GI50 [56]: 0.312 µM (active)

C[C@]12CC[C@@H]3c4ccc(O)cc4CC[C@H]3[C@@H]1CC[C@@H]2OP(=O)(O)O
GI50 [1]: > 100 µM (inactive)
GI50 [2]: > 100 µM (inactive)
GI50 [3]: > 100 µM (inactive)
GI50 [4]: > 100 µM
GI50 [5]: > 100 µM (inactive)
GI50 [57]: > 100 µM (inactive)
GI50 [6]: > 100 µM (inactive)
GI50 [7]: > 100 µM (inactive)
GI50 [8]: > 100 µM (inactive)
GI50 [9]: > 100 µM (inactive)
GI50 [10]: > 100 µM (inactive)
GI50 [11]: > 100 µM (inactive)
GI50 [12]: > 100 µM (inactive)
GI50 [13]: > 100 µM (inactive)
GI50 [14]: > 100 µM (inactive)
GI50 [15]: > 100 µM (inactive)
GI50 [16]: > 100 µM (inactive)
GI50 [17]: > 100 µM (inactive)
GI50 [18]: > 100 µM (inactive)
GI50 [19]: > 100 µM (inactive)
GI50 [20]: > 100 µM (inactive)
GI50 [21]: > 100 µM (inactive)
GI50 [22]: > 100 µM (inactive)
GI50 [23]: > 100 µM (inactive)
GI50 [24]: > 100 µM (inactive)
GI50 [25]: > 100 µM (inactive)
GI50 [26]: > 100 µM (inactive)
GI50 [27]: > 100 µM (inactive)
GI50 [28]: > 100 µM (inactive)
GI50 [29]: > 100 µM (inactive)
GI50 [30]: > 100 µM (inactive)
GI50 [31]: > 100 µM (inactive)
GI50 [32]: > 100 µM (inactive)
GI50 [33]: > 100 µM (inactive)
GI50 [34]: > 100 µM (inactive)
GI50 [35]: > 100 µM (inactive)
GI50 [36]: > 100 µM (inactive)
GI50 [37]: > 100 µM (inactive)
GI50 [38]: > 100 µM (inactive)
GI50 [40]: > 100 µM (inactive)
GI50 [58]: > 100 µM (inactive)
GI50 [41]: > 100 µM (inactive)
GI50 [42]: > 100 µM (inactive)
GI50 [43]: > 100 µM (inactive)
GI50 [44]: > 100 µM (inactive)
GI50 [45]: > 100 µM (inactive)
GI50 [46]: > 100 µM (inactive)
GI50 [59]: > 100 µM (inactive)
GI50 [47]: > 100 µM (inactive)
GI50 [48]: > 100 µM (inactive)
GI50 [49]: > 100 µM (inactive)
GI50 [50]: > 100 µM (inactive)
GI50 [51]: > 100 µM (inactive)
GI50 [52]: > 100 µM (inactive)
GI50 [53]: > 100 µM (inactive)
GI50 [54]: > 100 µM (inactive)
GI50 [55]: > 100 µM (inactive)
GI50 [56]: > 100 µM (inactive)
